Entries after “also recorded” stand apart in the source; their conditions may differ.
Columns and labels:
[1] = system: STING pathway in PBM tumors; assay: STING pathway activation in PBM tumors (p-TBK1/p-IRF3 flow cytometry, IFN-β/CXCL10 RT-qPCR); format: in vivo, mouse; settings: for phosphorylation of TBK1 and IRF3 in intratumoral DCs and macrophages: PBM tumors
Procedure: (§1) Tumors were first mechanically disrupted by chopping, then chemically digested in collagenase buffer (8 mL DMEM, 0.1 mL 1M HEPES, 0.5 mL FBS, 0.2 mL Pen/Strep, 1 m, 10× collagenase/hyaluronidase (Stemcell Technologies), 0.2 mL of 1 mg/mL DNase I (Stemcell Technologies) at 37° C. for 45 min. Single-cell suspensions of spleen and lymph nodes were obtained by mashed through a 70 um strainer using the plunger of a 3 mL or 5 mL syringe. Single cells suspensions were treated with red blood lysis buffer (4 mL NH4Cl+1 mL PBS with 2% calf serum) and washed with FACS buffer. Single cells suspensions were incubated with LIVE/DEAD Fixable Aqua Dead Cell Stain (Life Technologies, Cat # L34965) for 30 min and then blocked with anti-CD16/32 (BioLegend, clone 93) for 20 min on ice. Samples were then incubated with appropriate antibodies for 30 min. on ice. The Foxp3 staining buffer set (eBioscience, Cat #00-5523-00) was applied for intracellular markers staining. For the intracellular cytokine analysis, cells were stimulated with Leukocyte Activation Cocktail (BD Biosciences, Cat #550583) at 37° C. for 5 hours prior to FACS staining. The following antibodies were used in the experiments and were purchased from BioLegend unless otherwise indicated: CD45 (clone 30-F11), TCRβ (clone H57-597), CD4 (clone RM4-5), CD8 (clone 53-6.7), CD44 (clone IM7), CD62L (MEL-14), CD25 (PC61), IFNγ (clone XMG1.2), TNFα(clone MP6-XT22), PD-1 (clone 29F.1A12), Tim-3 (clone RMT3-23), LAG-3 (clone C9B7W), CD11b (clone M1/70), CD11c (clone BM8), F4/80 (clone BM8), Gr-1 (clone RB6-BC5), Ly-6C (clone HK1.4), Ly-6G (clone 1A8), MHCII (clone M5/114.15.2), CD80 (clone 16-10A1), CD86 (clone GL-1), MHC1 (clone KH114). […] Flow cytometry was performed on an LSR II (BD Biosciences) or LSRFortessa™ HTS (BD Biosciences) at the DFCI flow cytometry core facility, and all the data were analyzed using FlowJo software. […]

[2] = system: Brca1-proficient and Brca1-deficient tumor cells; assay: Measurement of IC50 value in tumor cells (MTS, 72 h); format: cell-based; settings: three pairs of models; for gemcitabine except PPM and PBM cells
Procedure: Tumor cells were seeded in 96-well plates at a density of 1000-3000/well and allowed to adhere overnight. Cells were then exposed to appropriate concentrations of therapeutic agents (or vehicle control) with continuous exposure for 72 h. Growth inhibition was measured by CellTiter Aqueous MTS reagent from Promega by comparing the absorbance at 490 nm of drug-treated cells to that of untreated controls set at 100%. 1C50 values were calculated using non-linear regression model (logarithmic inhibitor vs. normalized response-variable slope) in Graphpad Prism 7.

[3] = system: PP tumors (Pten−/−; Trp53−/−); assay: PP tumor growth after intratumoral injection of PBM or PP cells plus olaparib; format: in vivo, mouse; settings: 10^6 cells IT on day 1, 5, 9; olaparib 50 mg/kg/day IP from day 1
Procedure: All animal experiments described in this study were performed according to the animal protocols approved by the DFCI Institutional Animal Care and Use Committee. Pten^−/−; Trp53^−/− (termed PP) mammary epithelial tumor cells were derived from syngeneic FVB/N genetically engineered mouse model of breast tumors driven by concurrent loss of PTEN and P53 (K14-Cre/Pten^L/L, Trp53^L/L). 10^6 PP cells in 100 μl of 40% Matrigel® Matrix (Corning) in DMEM were injected into the mammary fat pad of FVB/N1 mice. When tumors were about 100-200 mm^3 in volume, three injections of 10^6 of Trp53^−/−; Brca1^−/−; c-Myc (termed PBM) ovarian surface epithelial tumor cells or PP cells were administered intraturnorally (IT) on day 1, 5, and 9, respectively. Mice were also administered 50 mg/kg/day of olaparib (AZD2281) in 10% DMSO via intraperitoneal injection (IP) from day 1. Olaparib was prepared by diluting 100 mg/ml stocks in DMSO with 10% of 2-hydroxyl-propyl-β-cyclodextrine (Sigma) in PBS. In another cohort of PP tumor, two doses of DMXAA (Sigma, 500 μg/dose) resuspended in 7.5% of NaHCO3 or vehicle control were injected IT over a one-week period. Tumor volume was calculated using the formula: V=0.52×length×width×width.

[4] = system: STING pathway in PPM tumors; assay: STING pathway activation in PPM tumors; settings: mouse, in vivo
Procedure: as §1, with “staining.” for “staining. The following antibodies were used in the experiments and were purchased from BioLegend unless otherwise indicated: CD45 (clone 30-F11), TCRβ (clone H57-597), CD4 (clone RM4-5), CD8 (clone 53-6.7), CD44 (clone IM7), CD62L (MEL-14), CD25 (PC61), IFNγ (clone XMG1.2), TNFα(clone MP6-XT22), PD-1 (clone 29F.1A12), Tim-3 (clone RMT3-23), LAG-3 (clone C9B7W), CD11b (clone M1/70), CD11c (clone BM8), F4/80 (clone BM8), Gr-1 (clone RB6-BC5), Ly-6C (clone HK1.4), Ly-6G (clone 1A8), MHCII (clone M5/114.15.2), CD80 (clone 16-10A1), CD86 (clone GL-1), MHC1 (clone KH114).”

[5] = system: PBM tumor-bearing mice; assay: Flow cytometry of tumor-infiltrating immune cells in PBM tumors; settings: mouse, in vivo
Procedure: Tumors were first mechanically disrupted by chopping, then chemically digested in collagenase buffer (8 mL DMEM, 0.1 mL 1M HEPES, 0.5 mL FBS, 0.2 mL Pen/Strep, 1 m, 10× collagenase/hyaluronidase (Stemcell Technologies), 0.2 mL of 1 mg/mL DNase I (Stemcell Technologies) at 37° C. for 45 min. Single-cell suspensions of spleen and lymph nodes were obtained by mashed through a 70 um strainer using the plunger of a 3 mL or 5 mL syringe. Single cells suspensions were treated with red blood lysis buffer (4 mL NH4Cl+1 mL PBS with 2% calf serum) and washed with FACS buffer. Single cells suspensions were incubated with LIVE/DEAD Fixable Aqua Dead Cell Stain (Life Technologies, Cat # L34965) for 30 min and then blocked with anti-CD16/32 (BioLegend, clone 93) for 20 min on ice. Samples were then incubated with appropriate antibodies for 30 min. on ice. The Foxp3 staining buffer set (eBioscience, Cat #00-5523-00) was applied for intracellular markers staining. For the intracellular cytokine analysis, cells were stimulated with Leukocyte Activation Cocktail (BD Biosciences, Cat #550583) at 37° C. for 5 hours prior to FACS staining. The following antibodies were used in the experiments and were purchased from BioLegend unless otherwise indicated: CD45 (clone 30-F11), TCRβ (clone H57-597), CD4 (clone RM4-5), CD8 (clone 53-6.7), CD44 (clone IM7), CD62L (MEL-14), CD25 (PC61), IFNγ (clone XMG1.2), TNFα(clone MP6-XT22), PD-1 (clone 29F.1A12), Tim-3 (clone RMT3-23), LAG-3 (clone C9B7W), CD11b (clone M1/70), CD11c (clone […]), F4/80 (clone BM8), Gr-1 (clone RB6-BC5), Ly-6C (clone HK1.4), Ly-6G (clone 1A8), MHCII (clone M5/114.15.2), CD80 (clone 16-10A1), CD86 (clone GL-1), MHC1 (clone KH114). FoxP3 (clone FJK-16 s; eBioscience), Phospho-IRF-3 (Ser396) (clone D6O1M, Cell signaling technology), Phospho-TBK1/NAK (Ser172) (clone D52C2, Cell signaling technology), and LIVE/DEAD® Fixable Aqua Dead Cell Stain Kit (Life Technologies Cat L34965). Flow cytometry was performed on an LSR II (BD Biosciences) or LSRFortessa™ HTS (BD Biosciences) at the DFCI flow cytometry core facility, and all the data were analyzed using FlowJo software.

`O=C(c1cc(Cc2n[nH]c(=O)c3ccccc23)ccc1F)N1CCN(C(=O)C2CC2)CC1` [olaparib, Olaparib] was tested, and the “phosphorylation of TBK1 and IRF3 in intratumoral DCs and macrophages” value [1] was “increased pTBK1+p-IRF3+”, the “phosphorylation of TBK1 and IRF3 in intratumoral DCs and macrophages” value ([1]; listed as Olaparib) was “increased phosphorylation” and the “IFN-β and CXCL10 expression in PBM tumor tissues” value ([1]; RT-qPCR) was “induction; also recorded: Increased expression”. The “IC50 values, Brca1-deficient lines in comparison to Brca1-proficient counterparts” value [2] was “much more sensitive”, the PP tumor growth [3] was “suppressed the growth of PP tumors” and the “hallmarks of STING pathway activation in PPM tumors” value [4] was “not observed”. For the same compound, the “CD80, CD86 and MHC class II expression on tumor associated DCs” value [5] was “increased levels”, the “CD103+ DCs at the tumor site” value [5] was “increased” and the “IFNγ and TNFα production by intratumoral CD4+ and CD8+ T cells” value [5] was “significantly increased the production”. For the same compound, the “PD-1/TIM-3 and PD-1/Lag3 co-expression (exhausted state) on intratumoral CD8+ T cells” value [5] was “reduced expression; also recorded: reduced the exhausted state”, the “effector CD8+ T cells in malignant ascites of the peritoneal cavity” value [5] was “Increase” and the “frequency of intratumoral FoxP3+ Treg” value [5] was “not changed”. For the same compound, the “immune cell (CD45+) infiltration into tumor” value [5] was “Increased”, the “intratumoral MDSC cells (CD11b+Gr1+; gMDSC)” value [5] was “reduced” and the “number of intratumoral CD4+ and CD8+ T cells” value [5] was “significantly increased; also recorded: increased the number”. The “intratumoral MDSC cells (CD11b+Gr1+; gMDSC)” value ([5]; listed as Olaparib) was “decrease”.

Reference: patent publication US20200268864A1, “CANCER VACCINE COMPOSITIONS AND METHODS FOR USING SAME TO TREAT CANCER” (Dana-Farber Cancer Institute, Inc., priority 2017, published 2020)
